Experimental findings from patent publication US5055613A, “Metabolites of pentanedioic acid derivatives” (G. D. Searle & Co., priority 1988, dated 1991) are described below.

Experiment [1] deals with fed hepatocytes. In words: Fatty acid and cholesterol synthesis in isolated fed hepatocytes. Format: cell-based, rat. The conditions noted are these: 0.5 mM; for Cholesterol Synthesis: No Addition 0.013 ± 0.002; for Fatty Acid Synthesis: No Addition 0.024 ± 0.004. The method, then: (§1) Hepatocytes are prepared from ad lib fed rats or 8-hour fasted rats by the method of Berry and Friend (1969) with minor modifications (McCune and Harris, 1979 J. Biol. Chem. 254,10095-10101.) Lean female rats (200-300 g) are ad lib fed and on a 8:00 a.m.-8:00 p.m. light cycle. The cells are isolated between 9:00-10:00 a.m., to compensate for any diurnal rhythms such as glycogen depletion.
(§2) The cells are suspended in 2 mls of Krebs-Henseleit buffer supplemented with 2% BSA (essentially fatty acid free and dialyzed) under an atmosphere of 95% O2, 5% CO2 in stoppered 25 ml Erlenmeyer flasks. Incubations were conducted in a shaking water bath at 37° C. for appropriate times. Cells for fatty acid and cholesterol synthesis were treated with […] of H2 O(10mCi/ml) after 30 minutes of pre-incubation and stopped at 60 minutes.
Determination of cholesterol and fatty acid synthesis: The rate of fatty acid synthesis and cholesterol synthesis, expressed as moles of acetate equivalents/g wet weight of hepatocytes are determined by the incorporation of H2 O into total lipid, and extracted by the methods of Kates (1972 Tech. of Lipidology, 349, 363) and Harris (1975 Arch. Biochem. Biophys. 169, 168-180). Calculations are done according to Jungas (1968 Biochemistry 7, 3708-3717).
(§3) Various compounds of the present invention were added to various concentrations to the hepatocytes and incubated for a short period of time. The effect of the compound was evaluated on cholesterol, fatty acid and glucose synthesis as well on other metabolites in the cell.

The subject of experiment [2] is fed hepatocytes. In words: Glucose release, lactate and pyruvate (metabolites) in isolated fed hepatocytes. Format: cell-based, rat. The following applies: 0.5 mM; for Pyruvate: No Addition 0.186 ± 0.040; for Lactate: No Addition 0.317 ± 0.095. The method, then: as §1, §2
Assay of metabolites: Cells are terminated with HClO4 (0.1 ml of 60%) and treated as described previously; McCune et al., 1981 Methods of Enzymology 72, 557-559). The metabolites in the extracts are measured spectrophotometrically by enzymatic methods, according to the methods of Hohorst et al. (1959 Biochem. Z., 332,18-46) for pyruvate and lactate, Williamson et al. (1962) for acetoacetate and beta-hydroxybutyrate, Slein (1965) for glucose, Michal and Bergmeyer (1974) for acetyl-CoA, McCune, et al. (ibid) for glycogen, Mollering and Gruber (1966 Anal. Biochem. 17, 369-379) for citrate, and Lambrecht and Trautschold (1974 Methods of Enzymatic Analysis, 2101 2109) for ATP.
as §3

As to `CC(C)(CO)CCCCCCCCCCCC(O)(CC(=O)O)CC(=O)O` [Example 14, 3-(13-Hydroxy-12,12-dimethyl-tridecyl)-3-hydroxy glutaric acid], in experiment [1], the “Cholesterol Synthesis” value amounted to 0.004 ± 0.001 mmoles/min/gm wet weight and the “Fatty Acid Synthesis” value worked out at 0.003 ± 0.001 mmoles/min/gm wet weight. Further, in experiment [2], the Pyruvate was 0.185 ± 0.042 mmoles/ml incubation medium and the Lactate is listed as 0.400 ± 0.091 mmoles/ml incubation medium.

Consider `CC(C)(C)CCCCCCCCCCCC(O)(CC(=O)O)CC(=O)O` [Prior Art Compound, 3hydroxy-3-[12,12dimethyltridecyl]glutaric acid, reference compound], for which, in experiment [1], the “Cholesterol Synthesis” value was 0.010 ± 0.002 mmoles/min/gm wet weight and the “Fatty Acid Synthesis” value is on record as 0.010 ± 0.002 mmoles/min/gm wet weight. In addition, in experiment [2], the Pyruvate is reported as 0.110 ± 0.013 mmoles/ml incubation medium and the Lactate is reported as 0.383 ± 0.085 mmoles/ml incubation medium.

For the compound `COC(=O)C(C)(C)CCCCCCCCCCCC(O)(CC(=O)O)CC(=O)O` [Example 10, 3-(12-Carbomethoxy-12-methyl-tridecyl)-3-hydroxy glutaric acid], in experiment [1], the “Cholesterol Synthesis” value is recorded as 0.003 ± 0.001 mmoles/min/gm wet weight and the “Fatty Acid Synthesis” value is 0.003 ± 0.001 mmoles/min/gm wet weight. Further, in experiment [2], the Pyruvate was 0.220 ± 0.031 mmoles/ml incubation medium and the Lactate is on record as 0.477 ± 0.084 mmoles/ml incubation medium.

As for `CC(C)(CCCCCCCCCCCC(O)(CC(=O)O)CC(=O)O)C(=O)O` [Example 11, 3-(12-Carboxy-12-methyl-tridecyl)-3-hydroxy glutaric acid], in experiment [1], the “Cholesterol Synthesis” value is 0.002 ± 0.001 mmoles/min/gm wet weight and the “Fatty Acid Synthesis” value came out at 0.003 ± 0.001 mmoles/min/gm wet weight. In addition, in experiment [2], the Pyruvate is on record as 0.202 ± 0.028 mmoles/ml incubation medium and the Lactate is 0.437 ± 0.104 mmoles/ml incubation medium.
